Data reported in US9045731B2, “Compositions and methods for improving the functional efficacy of stem cell-derived cardiomyocytes” (The Regents of the University of California, priority 2007, dated 2015).

Key:
HES2-CMs = assay: Cytosolic Ca2+ transients (Fura-2/AM spectrofluorometry) in HES2-CMs; assay type: cell-based, human
Experimental: Briefly, HES2 cells were grown on mitomycin C- (Sigma; St Louis, Mo., USA) inactivated mouse embryonic fibroblasts (mEFs). Culture medium consisted of DMEM (Invitrogen, Carlsbad, Calif.) containing 2 mM L-glutamine, insulin-transferrin-selenium, non-essential amino acids, 90 μM β-mercaptoethanol, and 20% FBS (Hyclone, Logan, Utah). HES2 cells were passaged manually (“cut-and-paste”), by cutting colony into pieces and removing them from the mEFs using dispase (8 mg/mL, Invitrogen, Carlsbad, Calif.). For cardiac differentiation, HES2 cells were removed from the mEFs, resuspended and broken into pieces, followed by co-culturing with the immortalized endoderm-like END2 cells at 100% confluence (6).
(§1) For isolating hESC-CMs, beating outgrowths were microsurgically dissected from H1- (7+11 to 17 or 18-24 days) and HES2- (18-24 days) derived EBs by a glass knife, (4) followed by incubation in collagenase II (1 mg/mL) at 37° C. for 30 min. The isolated cells were incubated with KB solution containing (mM): 85 KCl, 30 K2HPO4, 5 MgSO4, 1 EGTA, 2 Na2-ATP, 5 pyruvic acid, 5 creatine, 20 taurine, 20 d-glucose, at room temperature for 30 min. After the cells were plated on laminin-coated glass coverslips for 1 hr at 37° C., regular culture media was added. […] Calcium recordings from cell clusters containing 10-15 cells were performed within 48 hrs after plating.
(§2) A spectrofluorometric method with Fura-2/AM as the Ca^2+ indicator was used for measuring [Ca^2+]i. FLV- or hESC-CMs were incubated with 5 μM Fura-2/AM and 0.2% pluronic F-127 for 30 min at 37° C. Fluorescent signals obtained upon excitation at 340 nm (F340) and 380 nm (F380) were recorded from cells perfused with Tyrode solution containing (mM): 140 NaCl, 5.0 KCl, 1.0 CaCl2, 1.0 MaCl2, 10.0 glucose and 10 HEPES (pH 7.4) unless otherwise indicated. Data were analyzed using the Ionwizard software (Version 5, IonOptix) to generate the Ca transient parameters reported in this study. The F340/F380 ratio was used to represent cytosolic [Ca^2+]i. To induce cytoplasmic Ca^2+ transients, CMs were stimulated by electrically pulsing from 0.1 to 0.5 Hz or by caffeine application as indicated. For electrical stimulations, Ca^2+ transients were recorded and analyzed after a series of depolarizations that enabled each transient to fully decay so as to establish a steady-state SR content.

H1-CMs [1] = assay: Cytosolic Ca2+ transients (Fura-2/AM spectrofluorometry) in H1-CMs; assay type: cell-based, human
Experimental: H1 cells were grown on irradiated mEFs from 13.5-day embryos of CF-1 mice and propagated as previously described (3). The culture medium consisted of 80% Dulbecco's modified Eagle's medium, 20% knockout serum replacement, 4 ng/ml basic fibroblast growth factor, 1 mmol/L glutamine, 0.1 mmol/L β-mercaptoethanol, and 1% nonessential amino acid solution (all from Gibco-BRL, Gaithersburg, Md.). To induce the formation of embryoid bodies (EBs), hESCs were detached using 1 mg/mL type IV collagenase (Gibco-BRL) and transferred to Petri dishes containing 80% Dulbecco's modified Eagle's medium, 20% fetal bovine serum defined (HyClone, Logan, Utah), 1 mmol/L glutamine, and 1% nonessential amino acid stock in the absence of β-FGF. The aggregates were cultured in suspension for 7 days, followed by plating on gelatin-coated (0.1%; Sigma-Aldrich, St. Louis) 6-well plates to form hESC-CMs.
as §1, §2

H1-CMs [2] = assay: Cytosolic Ca2+ transients (Fura-2/AM) in adenovirus-transduced H1-CMs; assay type: cell-based, human; details: for Electrically evoked Ca2+ transient amplitude after ryanodine / Upstroke velocity of Ca2+ transients after ryanodine: 10 μM ryanodine, 30 minutes
Source text: Human cardiac calsequestrin 2 (sc119365, Origene technologies, MD) was cloned and ligated into adenovirus shuttle vectors pAdCMV-IRES-GFP using primers creating Bmt and Spe I sites (pAdCMV-CSQ-IRES-GFP). IRES, internal ribosomal entry site, allows the simultaneous translation of CSQ and the fluorescence marker (GFP) with a single transcript. The truncated CSQ mutant was constructed in pAdCMV-IRES-GFP by deleting 817 bp (53 bp-869 bp) using the two EcoN I sites inside CSQ's coding sequence (Ad-CSQΔ). The resulting product after Hind III cutting was self-ligated to produce another control of pAdCMV-GFP (Ad-GFP). Adenoviruses were generated by Cre-lox recombination of purified ψ5 viral DNA and shuttle vector DNA using Cre4 cells as described previously (56).
For isolating H1-CMs, beating outgrowths were microsurgically dissected from H1- derived EBs (7+14 to 7+21 days) by a glass knife, followed by incubation in collagenase II (1 mg/mL) at 37° C. for 30 min. The isolated cells were incubated with KB solution containing (mM): 85 KCl, 30 K2HPO4, 5 MgSO4, 1 EGTA, 2 Na2-ATP, 5 pyruvic acid, 5 creatine, 20 taurine, 20 d-glucose, at room temperature for 30 min. After the cells were plated on gelatin-coated glass coverslips for 1 hr at 37° C., regular culture media was added. After 48 hours, plated H1-CMs were infected with adenoviruses for 3 hours. Recordings were performed within 24-48 hrs after infection.
A spectrofluorometric method with Fura-2/AM as the Ca^2+ indicator was used for measuring [Ca^2+]i. H1-CMs were incubated with 10 μM Fura-2/AM and 0.2% pluronic F-127 for 30 min at 37° C. Fluorescent signals obtained upon excitation at 340 nm (F340) and 380 nm (F380) were recorded from cells perfused with Tyrode solution containing (mM): 140 NaCl, 5.0 KCl, 1.0 CaCl2, 1.0 MaCl2, 10.0 glucose and 10 HEPES (pH 7.4) unless otherwise indicated. Data were analyzed using the Ionwizard software (Version 5, IonOptix) to generate the Ca^2+ transient parameters reported in this study. The F340/F380 ratio was used to represent cytosolic [Ca^2+]i. To induce cytoplasmic Ca^2+ transients, CMs were stimulated by electrically pulsing from 0.1 to 0.5 Hz or by caffeine application as indicated.
For electrical stimulations, Ca^2+ transients were recorded and analyzed after a series of depolarizations that enabled each transient to fully decay so as to establish a steady-state SR content.

hESC-CMs = assay: Cytosolic Ca2+ transients (Fura-2/AM), HES2- and H1-CMs taken together; assay type: cell-based, human; details: for Effect on Vmax, upstroke of electrically evoked Ca2+ transients: 10 μM ryanodine, 30 min
Experimental: as §1, §2

FLV-CMs = assay: Cytosolic Ca2+ transients (Fura-2/AM spectrofluorometry) in human fetal left ventricular CMs; assay type: cell-based; details: caffeine 10 mM, brief exposure, no Ca2+ in extracellular bath
Source text: Human FLV-CMs and adult-CMs were isolated and experimented according to protocols approved by the UC Davis IUPAC and IRB (Protocol #200614787-1 and # 200614594-1). Briefly, fetal human hearts (16-18 weeks, Advanced Bioscience Resources, INC. Alameda, Calif.) and adult human hearts (18+ years, National Disease Research Interchange, Philadelphia, Pa.) were perfused with enzymatic solutions using a customized Langendorff apparatus as previously described (19). […]
as §2, with “FLV- or hESC-CMs were incubated with 5 μM Fura-2/AM and 0.2% pluronic F-127 for 30 min at 37° C.” left out, “The F340/F380 ratio was used to represent cytosolic [Ca^2+]i. To induce cytoplasmic Ca^2+ transients, CMs were stimulated by electrically pulsing from 0.1 to 0.5 Hz or by caffeine application as indicated.” left out

C/C=C(/C)C(=O)O[C@H]1C(C)=C2[C@H]([C@@H]1OC(=O)CCCCCCC)[C@@](C)(OC(C)=O)C[C@H](OC(=O)CCC)[C@@]1(O)[C@H]2OC(=O)[C@@]1(C)O [thapsigargin]
Effect on Vmax, decay of electrically evoked Ca2+ transients (HES2-CMs; thapsigargin 0.5 μM, 15 min, HES2-CMs): significantly slowed | Effect on electrically evoked Ca2+ transient amplitude (HES2-CMs; thapsigargin 0.5 μM, 15 min, caffeine-responsive HES2-CMs): significantly reduced | Effect on Vmax, decay of electrically evoked Ca2+ transients (H1-CMs [1]; thapsigargin 0.5 μM, 15 min, H1-CMs): significantly slowed | Effect on electrically evoked Ca2+ transient amplitude (H1-CMs [1]; thapsigargin 0.5 μM, 15 min, caffeine-responsive H1-CMs): significantly reduced | Decay velocity of Ca2+ transients after thapsigargin (H1-CMs [2]; thapsigargin (0.5 μM), 15 min, H1-CMs transduced with Ad-CSQ): 61% | Decay velocity of Ca2+ transients after thapsigargin (H1-CMs [2]; thapsigargin (0.5 μM), 15 min, H1-CMs transduced with Ad-CSQΔ): 65% | Decay velocity of Ca2+ transients after thapsigargin (H1-CMs [2]; thapsigargin (0.5 μM), 15 min, H1-CMs transduced with Ad-GFP): 69% | Ca2+ transient amplitude after thapsigargin (H1-CMs [2]; thapsigargin (0.5 μM), 15 min, transduced H1-CMs (all three groups)): unchanged

ryanodine
Effect on electrically evoked Ca2+ transient amplitude (HES2-CMs; 10 μM ryanodine, 30 min, caffeine-insensitive HES2-CMs): not affected | Reduction of electrically evoked Ca2+ transient amplitude (HES2-CMs; 10 μM ryanodine, 30 min, caffeine-responsive HES2-CMs): 37±4.8% | Effect on Vmax, upstroke of electrically evoked Ca2+ transients (hESC-CMs; caffeine-insensitive cells): not | Effect on Vmax, upstroke of electrically evoked Ca2+ transients (hESC-CMs; caffeine-responsive cells): significantly slowed | Effect on electrically evoked Ca2+ transient amplitude (H1-CMs [1]; 10 μM ryanodine, 30 min, caffeine-insensitive H1-CMs): not affected | Reduction of electrically evoked Ca2+ transient amplitude (H1-CMs [1]; 10 μM ryanodine, 30 min, caffeine-responsive H1-CMs): 18±4.3% | Electrically evoked Ca2+ transient amplitude after ryanodine (H1-CMs [2]; H1-CMs transduced with Ad-CSQ): 78% | Upstroke velocity of Ca2+ transients after ryanodine (H1-CMs [2]; H1-CMs transduced with Ad-CSQ): 67% | Electrically evoked Ca2+ transient amplitude after ryanodine (H1-CMs [2]; H1-CMs transduced with Ad-CSQΔ): 84% | Upstroke velocity of Ca2+ transients after ryanodine (H1-CMs [2]; H1-CMs transduced with Ad-CSQΔ): 62% | Electrically evoked Ca2+ transient amplitude after ryanodine (H1-CMs [2]; H1-CMs transduced with Ad-GFP): 80% | Upstroke velocity of Ca2+ transients after ryanodine (H1-CMs [2]; H1-CMs transduced with Ad-GFP): 64%

Cn1c(=O)c2c(ncn2C)n(C)c1=O [caffeine]
Percentage of cells with caffeine-induced rise in cytosolic Ca2+ (caffeine-responsive cells) (FLV-CMs): 65% | Percentage of cells with caffeine-induced Ca2+ transients (caffeine-responsive cells) (HES2-CMs; caffeine 10 mM, brief exposure, no Ca2+ in extracellular bath, HES2-CMs): 40% | Percentage of cells with caffeine-induced large Ca2+ transients (hESC-CMs; hESC-CMs (HES2- and H1-CMs pooled)): ~38% | Percentage of cells with caffeine-induced Ca2+ transients (caffeine-responsive cells) (H1-CMs [1]; caffeine 10 mM, brief exposure, no Ca2+ in extracellular bath, H1-CMs): 35% | Cytosolic Ca2+ response to caffeine (H1-CMs [2]; caffeine 10 mM, brief exposure, transduced H1-CMs): robust cytosolic Ca^2+ increase
